From patent publication US12589156B2, “Benzimidazole and benzimidazolone based protac compounds for the targeted degradation of leucine rich repeat kinase 2 (LRRK2)” (Arvinas Operations, Inc., priority 2023, dated 2026)

Target: T1, WT LRRK2 (Homo sapiens, UniProt Q5S007)
T1 construct: endogenous in cells; host or cells: HEK293 (endogenous LRRK2 gene knock-in tagged with HiBit; stably expressing CMV-driven firefly luciferase)
Test: LRRK2 HiBit degradation assay (Nano-Glo Dual Luciferase) in HEK293 cells with HiBit-tagged endogenous LRRK2
Type: cell-based
Summary of the method: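 HEK293 cells carrying endogenous C-terminally HiBit-tagged LRRK2 and stably expressing CMV-driven firefly luciferase were treated for 24 h at 37° C with an 11-point 1:3 series from a 1 μM final top concentration. Nano-Glo Dual Luciferase read LRRK2-HiBit against firefly signal. Alamar Blue gave viability, and signals were normalized to DMSO median before curve fitting.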

[1] = HEK293, Table 2, maximal degradation, HiBit-tagged LRRK2 in HEK293 cells, 24 hours treatment
[2] = Table 2, HiBit-tagged LRRK2 in HEK293 cells, 24 hours treatment, starting concentration 1 μM
[3] = Table 2, maximal degradation, HiBit-tagged LRRK2 in HEK293 cells, 24 hours treatment
[4] = HEK293, Table 3, comparison with direct comparators, maximal degradation
[5] = Table 3, comparison with direct comparators, HiBit-tagged LRRK2 in HEK293 cells, 24 hours treatment

T1 sequence (Q5S007 whole entry): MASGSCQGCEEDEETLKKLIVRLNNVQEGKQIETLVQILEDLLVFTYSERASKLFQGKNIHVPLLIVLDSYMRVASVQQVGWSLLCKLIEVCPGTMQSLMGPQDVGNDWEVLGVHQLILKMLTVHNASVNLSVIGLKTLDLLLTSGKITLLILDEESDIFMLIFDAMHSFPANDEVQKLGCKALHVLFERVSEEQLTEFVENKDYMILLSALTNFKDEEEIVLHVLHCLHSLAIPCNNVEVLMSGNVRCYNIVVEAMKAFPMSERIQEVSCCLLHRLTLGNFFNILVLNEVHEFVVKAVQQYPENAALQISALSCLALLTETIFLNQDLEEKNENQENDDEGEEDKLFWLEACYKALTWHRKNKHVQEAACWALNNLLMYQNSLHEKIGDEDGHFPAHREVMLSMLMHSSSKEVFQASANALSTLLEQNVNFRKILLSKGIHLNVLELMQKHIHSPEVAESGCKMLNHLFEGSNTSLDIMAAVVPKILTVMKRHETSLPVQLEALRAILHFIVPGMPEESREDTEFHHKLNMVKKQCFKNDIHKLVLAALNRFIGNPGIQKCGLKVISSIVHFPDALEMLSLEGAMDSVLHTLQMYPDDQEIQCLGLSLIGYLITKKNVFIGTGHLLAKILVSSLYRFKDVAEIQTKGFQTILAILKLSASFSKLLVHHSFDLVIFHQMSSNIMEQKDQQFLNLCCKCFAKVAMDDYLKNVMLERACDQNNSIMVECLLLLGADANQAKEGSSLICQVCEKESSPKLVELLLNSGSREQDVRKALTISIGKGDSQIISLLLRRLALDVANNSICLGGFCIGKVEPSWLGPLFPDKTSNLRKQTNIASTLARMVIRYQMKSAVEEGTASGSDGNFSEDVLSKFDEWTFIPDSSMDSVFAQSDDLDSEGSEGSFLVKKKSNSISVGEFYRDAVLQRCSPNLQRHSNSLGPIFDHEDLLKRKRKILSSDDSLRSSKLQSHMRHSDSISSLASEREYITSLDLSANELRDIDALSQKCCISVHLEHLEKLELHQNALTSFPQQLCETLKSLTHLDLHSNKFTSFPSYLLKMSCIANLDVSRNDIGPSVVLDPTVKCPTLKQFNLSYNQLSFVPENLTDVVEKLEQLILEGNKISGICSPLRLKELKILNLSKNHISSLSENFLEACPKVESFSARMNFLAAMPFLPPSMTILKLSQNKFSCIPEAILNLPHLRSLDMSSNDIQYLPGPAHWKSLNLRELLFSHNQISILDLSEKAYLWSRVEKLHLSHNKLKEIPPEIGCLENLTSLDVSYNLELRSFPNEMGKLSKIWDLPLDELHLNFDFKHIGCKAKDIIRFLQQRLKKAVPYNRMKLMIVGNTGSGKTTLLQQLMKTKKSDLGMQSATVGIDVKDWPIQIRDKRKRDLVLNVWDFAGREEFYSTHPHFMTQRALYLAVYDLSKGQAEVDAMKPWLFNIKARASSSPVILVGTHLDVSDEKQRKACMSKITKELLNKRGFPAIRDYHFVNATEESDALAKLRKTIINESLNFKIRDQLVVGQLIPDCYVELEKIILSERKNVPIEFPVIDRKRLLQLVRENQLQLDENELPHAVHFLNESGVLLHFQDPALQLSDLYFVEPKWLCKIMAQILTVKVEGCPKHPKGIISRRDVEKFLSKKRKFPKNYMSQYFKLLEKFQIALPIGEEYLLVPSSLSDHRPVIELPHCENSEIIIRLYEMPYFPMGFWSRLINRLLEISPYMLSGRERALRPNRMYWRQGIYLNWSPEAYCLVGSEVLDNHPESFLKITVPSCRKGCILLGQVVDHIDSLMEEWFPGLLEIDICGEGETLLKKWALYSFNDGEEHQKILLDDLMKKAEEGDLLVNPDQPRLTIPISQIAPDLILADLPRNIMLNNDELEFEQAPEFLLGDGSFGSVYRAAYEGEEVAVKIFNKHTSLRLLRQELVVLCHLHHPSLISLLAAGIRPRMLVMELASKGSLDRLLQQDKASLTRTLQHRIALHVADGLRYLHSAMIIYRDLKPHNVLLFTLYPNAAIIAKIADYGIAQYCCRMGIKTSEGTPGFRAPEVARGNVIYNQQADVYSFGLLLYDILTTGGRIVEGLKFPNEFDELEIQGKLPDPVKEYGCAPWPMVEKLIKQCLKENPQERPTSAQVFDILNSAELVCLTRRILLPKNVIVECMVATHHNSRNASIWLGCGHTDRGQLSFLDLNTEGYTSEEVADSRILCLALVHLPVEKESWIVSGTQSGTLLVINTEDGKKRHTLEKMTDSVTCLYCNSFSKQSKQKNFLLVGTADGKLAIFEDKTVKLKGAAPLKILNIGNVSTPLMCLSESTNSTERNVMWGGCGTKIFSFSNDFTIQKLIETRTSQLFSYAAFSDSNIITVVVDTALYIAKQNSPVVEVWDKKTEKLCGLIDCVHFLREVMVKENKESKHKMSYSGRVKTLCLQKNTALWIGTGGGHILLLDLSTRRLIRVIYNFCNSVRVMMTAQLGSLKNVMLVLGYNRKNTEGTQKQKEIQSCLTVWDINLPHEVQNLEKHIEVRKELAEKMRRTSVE

SMILES | Dmax [1] [%] | DC50 [2] [nM] | WT LRRK2 **Dmax (%) [3] [%] | Dmax [3] [%] | Dmax [4] [%] | DC50 [5] [nM]
CC(C)n1c(=O)n(C2CCC(=O)NC2=O)c2ccc(N3CCC(O[C@H]4CC[C@H](CN5CCN(c6cc(-c7n[nH]c8cnc(OC9(C)CC9)cc78)ncn6)CC5)CC4)CC3)cc21 (single isomer, unassigned) [Compound 52, rel-3-[2-oxo-3-(propan-2-yl)-5-(4-{[(1r,4r)-4-[(4-{6-[5-(1-methylcyclopropoxy)-1H-pyrazolo[3,4-c]pyridin-3-yl]pyrimidin-4-yl}piperazin-1-yl)methyl]cyclohexyl]oxy}piperidin-1-yl)-2,3-dihydro-1H-1,3-benzodiazol-1-yl]piperidine-2,6-dione] | 53 | 0.28 |  |  |  | 
CC(C)Oc1ccc2[nH]nc(-c3cc(N4CCN(CC5CCC(OC6CCN(c7ccc8c(c7)n(C)c(=O)n8C7CCC(=O)NC7=O)CC6)CC5)CC4)ncn3)c2c1 (stereo not drawn) [Compound 55, rel-3-[3-methyl-2-oxo-5-(4-{[(1r,4r)-4-[(4-{6-[5-(propan-2-yloxy)-1H-indazol-3-yl]pyrimidin-4-yl}piperazin-1-yl)methyl]cyclohexyl]oxy}piperidin-1-yl)-2,3-dihydro-1H-1,3-benzodiazol-1-yl]piperidine-2,6-dione] |  | 1.5 | 53 |  |  | 
Cn1c(=O)n(C2CCC(=O)NC2=O)c2cc(N3CCC(OC4CCC(CN5CCN(c6cc(-c7n[nH]c8ccc(OC9(C)CC9)cc78)ncn6)CC5)CC4)CC3)ccc21 (stereo not shown) [Compound 5, 3-[3-methyl-2-oxo-6-(4-{[(1r,4r)-4-[(4-{6-[5-(1-methylcyclopropoxy)-1H-indazol-3-yl]pyrimidin-4-yl}piperazin-1-yl)methyl]cyclohexyl]oxy}piperidin-1-yl)-2,3-dihydro-1H-1,3-benzodiazol-1-yl]piperidine-2,6-dione] |  | ≥ 1000 |  |  |  | 
Cn1c(=O)n(C2CCC(=O)NC2=O)c2ccc(N3CCC(O[C@H]4CC[C@H](CN5CCN(c6cc(-c7n[nH]c8ccc([C@@]9(C#N)CC9%10CC%10)cc78)ncn6)CC5)CC4)CC3)cc21 (single isomer, unassigned) [Compound 65, (1R**)-1-{3-[6-(4-{[(1r*,4r*)-4-({1-[1-(2,6-dioxopiperidin-3-yl)-3-methyl-2-oxo-2,3-dihydro-1H-1,3-benzodiazol-5-yl]piperidin-4-yl}oxy)cyclohexyl]methyl}piperazin-1-yl)pyrimidin-4-yl]-1H-indazol-5-yl}spiro[2.2]pentane-1-carbonitrile] | 64 | 0.13 |  |  |  | 
Cn1c(=O)n(C2CCC(=O)NC2=O)c2ccc(N3CCC(O[C@H]4CC[C@H](CN5CCN(c6cc(-c7n[nH]c8cnc(C9(C#N)CCC9)cc78)ncn6)CC5)CC4)CC3)cc21 (single isomer, unassigned) [Compound 22, rel-1-{3-[6-(4-{[(1r,4r)-4-({1-[1-(2,6-dioxopiperidin-3-yl)-3-methyl-2-oxo-2,3-dihydro-1H-1,3-benzodiazol-5-yl]piperidin-4-yl}oxy)cyclohexyl]methyl}piperazin-1-yl)pyrimidin-4-yl]-1H-pyrazolo[3,4-c]pyridin-5-yl}cyclobutane-1-carbonitrile] | 46 | 0.14 |  |  |  | 
Cn1c(=O)n(C2CCC(=O)NC2=O)c2ccc(C3CCN([C@H]4C[C@H](OC5CCN(c6cc(-c7n[nH]c8ccc(OC9(C)CC9)cc78)ncn6)CC5)C4)CC3)cc21 (single isomer, unassigned) [Compound 37, rel-3-(3-methyl-2-oxo-5-{1-[(1r,3r)-3-[(1-{6-[5-(1-methylcyclopropoxy)-1H-indazol-3-yl]pyrimidin-4-yl}piperidin-4-yl)oxy]cyclobutyl]piperidin-4-yl}-2,3-dihydro-1H-1,3-benzodiazol-1-yl)piperidine-2,6-dione] |  | 0.053 |  | 64 |  | 
COc1c(N2CCC(O[C@H]3CC[C@H](CN4CCN(c5cc(-c6n[nH]c7cnc(OC8(C)CC8)cc67)ncn5)CC4)CC3)CC2)ccc2c1CN(C1CCC(=O)NC1=O)C2=O (stereo partly shown) [Comparative Example 1, reference compound] |  |  |  |  | 52 | 5.6
CC1(Oc2ccc3[nH]nc(-c4cc(N5CCC(CN6CCN(CC7CCN(c8ccc9c(c8)ncn9C8CCC(=O)NC8=O)CC7)CC6(C)C)CC5)ncn4)c3c2)CC1 (stereo not shown) [Compound 13, 3-{5-[4-({3,3-dimethyl-4-[(1-{6-[5-(1-methylcyclopropoxy)-1H-indazol-3-yl]pyrimidin-4-yl}piperidin-4-yl)methyl]piperazin-1-yl}methyl)piperidin-1-yl]-1H-1,3-benzodiazol-1-yl}piperidine-2,6-dione] | 64 | 1 |  |  | 64 | 1
Cn1c(=O)n(C2CCC(=O)NC2=O)c2ccc(N3CCC(O[C@H]4CC[C@@H](CN5CCN(c6cc(-c7n[nH]c8cnc(OC9(C)CC9)cc78)ncn6)CC5)CC4)CC3)cc21 (stereo partly shown) [Compound 68, 3-[3-methyl-2-oxo-5-(4-{[(1s,4s)-4-[(4-{6-[5-(1-methylcyclopropoxy)-1H-pyrazolo[3,4-c]pyridin-3-yl]pyrimidin-4-yl}piperazin-1-yl)methyl]cyclohexyl]oxy}piperidin-1-yl)-2,3-dihydro-1H-1,3-benzodiazol-1-yl]piperidine-2,6-dione] | 35 | 1.2 |  |  |  | 
CC1(Oc2ccc3[nH]nc(-c4cc(N5CCC(CN6CCN(CC7CCN(c8cc(F)c9c(c8)ncn9C8CCC(=O)NC8=O)CC7)CC6(C)C)CC5)ncn4)c3c2)CC1 (stereo not shown) [Compound 39, 3-{5-[4-({3,3-dimethyl-4-[(1-{6-[5-(1-methylcyclopropoxy)-1H-indazol-3-yl]pyrimidin-4-yl}piperidin-4-yl)methyl]piperazin-1-yl}methyl)piperidin-1-yl]-7-fluoro-1H-1,3-benzodiazol-1-yl}piperidine-2,6-dione] | 56 | 4.9 |  |  | 56 | 4.9
COc1c(N2CCC(O[C@H]3CC[C@H](CN4CCN(c5cc(-c6[nH]nc7ccc(OC8(C)CC8)cc67)ncn5)CC4)CC3)CC2)ccc2c1CN(C1CCC(=O)NC1=O)C2=O (stereo partly shown) [Comparative Example 2, reference compound] |  |  |  |  | 62 | 3
Cn1c(=O)n(C2CCC(=O)NC2=O)c2ccc(N3CCC(O[C@H]4C[C@H](OC5CCN(c6cc(-c7n[nH]c8ccc(OC9(C)CC9)cc78)ncn6)CC5)C4)CC3)cc21 (single isomer, unassigned) [Compound 29, rel-3-(3-methyl-2-oxo-5-{4-[(1r,3r)-3-[(1-{6-[5-(1-methylcyclopropoxy)-1H-indazol-3-yl]pyrimidin-4-yl}piperidin-4-yl)oxy]cyclobutoxy]piperidin-1-yl}-2,3-dihydro-1H-1,3-benzodiazol-1-yl)piperidine-2,6-dione] |  | 0.16 |  | 54 |  | 
Cn1c(=O)n(C2CCC(=O)NC2=O)c2cc(N3CCC(CN4CCN(CC5CCN(c6cc(-c7n[nH]c8ccc(OC9(C)CC9)cc78)ncn6)CC5)C(C)(C)C4)CC3)ccc21 (stereo not shown) [Compound 17, 3-{6-[4-({3,3-dimethyl-4-[(1-{6-[5-(1-methylcyclopropoxy)-1H-indazol-3-yl]pyrimidin-4-yl}piperidin-4-yl)methyl]piperazin-1-yl}methyl)piperidin-1-yl]-3-methyl-2-oxo-2,3-dihydro-1H-1,3-benzodiazol-1-yl}piperidine-2,6-dione] |  | ≥ 1000 |  |  |  | 
